Test results from patent publication US20050070480A1, “Peptide arginals and methods for treating disseminated intravascular coagulation” (priority 2001, published 2005).
Read-outs that look alike come from different tables or passages of the source. Non-standard residues stand in square brackets, D forms with d. Residues, ends and D or L forms follow the SMILES beside them. dNMeChg = CN[C@@H](C(=O)O)C1CCCCC1; Aze = O=C(O)[C@@H]1CCN1

What was measured:
[1] = molecular target: clot-bound factor Xa (Homo sapiens, UniProt P00742); assay: Enzyme inhibition in platelet-rich plasma clots, chromogenic substrate Moc-D-Chg-Gly-Arg-pNA; format: biochemical
clot-bound factor Xa, sequence (P00742 235-488 limits assumed): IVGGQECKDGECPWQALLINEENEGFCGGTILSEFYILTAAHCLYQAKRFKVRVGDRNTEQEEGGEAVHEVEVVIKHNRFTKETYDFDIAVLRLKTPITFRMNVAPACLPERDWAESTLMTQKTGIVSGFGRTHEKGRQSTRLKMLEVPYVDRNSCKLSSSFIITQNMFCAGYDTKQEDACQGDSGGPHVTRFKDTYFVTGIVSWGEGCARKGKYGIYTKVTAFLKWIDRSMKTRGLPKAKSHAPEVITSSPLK
clot-bound factor Xa, sequence (P00742 41-179 limits assumed): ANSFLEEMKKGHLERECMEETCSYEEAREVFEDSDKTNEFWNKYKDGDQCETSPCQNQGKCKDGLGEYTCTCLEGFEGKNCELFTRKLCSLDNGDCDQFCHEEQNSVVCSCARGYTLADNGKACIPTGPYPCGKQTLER
Description: (§1) Tos-Gly-Pro-Arg-pNA (S1) for thrombin and Moc-D-Chg-Gly-Arg-pNA (S2) for factor Xa, as published (Bajusz, S. et al.: PCT Pub. No. WO97/46576) briefly. The assays were carried out at room temperature in glass tubes and 96-well microtiter plates.
(§2) Solutions, (i) Buffer A: 0.1 M sodium phosphate/0.05 M NaCl (pH 8.5). (ii) Inhibitors: 0.1, 1.0 and 10 mg/ml solutions in buffer A containing 0.02% human albumin. (iii) Substrates: 1 mM of S1 and 2 mM of S2 in distilled water.
(§3) (b) Preparation of plasma clots. Platelet rich plasma samples (200 μl) placed in glass tubes were incubated at room temperature with 80 μl 40 mM CaCl2 for 60 min. The clots were washed with 2 ml aliquots of saline (0.9% NaCl) with gentle agitation to remove unbound enzymes In case of successful washing the optical density of the reaction mixture of wash and S1 is less than 5% of the control. The plasma clot thus obtained was kept under saline in the tube until use.
(§4) (c) Assessment of the enzyme inhibition in the clots. After removal of saline, the plasma clot was incubated at 37° C. with 400 μl inhibitor (or buffer A as negative control) for 5 min. and with 100 μl substrate S1 or S3 for 30 min., then the reaction was stopped with 100 μl 50% acetic acid. 150 μl portions of the reaction mixtures were placed in the wells of a microtiter plate and read at 405 nm (ELISA READER 800, Bio-Tek Instruments Inc. Winooski, Vt., USA). IC50 values were generated from the extinction data graphically.

[2] = test system: citrated human plasma; assay: Activated partial thromboplastin time (APTT) plasma clotting assay; format: biochemical
Description: (§5) The inhibitory effect on plasma coagulation was evaluated in the thrombin time (TT), activated partial thromboplastin time (APTT) and prothrombin time (PT) assays by using citrated human plasma as substrate [Bagdy, D. et. al.: Thromb. Haemostas. 67, 325 (1992)]. The TT assay measures the inhibition of a single step, the coagulation of fibrinogen on the action of exogenous thrombin (final concentration 2.5 NIH U/ml). Clotting of plasma in the APTT and PT assays was induced by recalcification. Endogenous thrombin generated could theoretically be present at a final concentration as high as 50 NIH U/ml (APTT, PT). These assays detect the sum of inhibitory actions on fibrin formation and thrombin generation, which includes several proteolytic reactions mediated by either thrombin or other enzymes, e.g. fXa. Anticlotting activity is expressed in CT2, which is the concentration (nM) required to double the clotting time.

[3] = test system: LPS-treated rats; assay: Survival in a rat model for disseminated intravascular coagulation; format: in vivo; settings: for Survival rate %: rats, 30 mg/kg LPS i.v.; for Effectiveness on survival compared with reference C (in words): LPS-treated rats
[4] = molecular target: tissue plasminogen activator (tPA) (Homo sapiens, UniProt P00750); assay: Fibrin plate assay, tissue plasminogen activator; format: biochemical; settings: reduction of lysed area to 50% of control, read-out: LA50 tPA
tissue plasminogen activator (tPA), sequence (P00750 36-562, species assumed): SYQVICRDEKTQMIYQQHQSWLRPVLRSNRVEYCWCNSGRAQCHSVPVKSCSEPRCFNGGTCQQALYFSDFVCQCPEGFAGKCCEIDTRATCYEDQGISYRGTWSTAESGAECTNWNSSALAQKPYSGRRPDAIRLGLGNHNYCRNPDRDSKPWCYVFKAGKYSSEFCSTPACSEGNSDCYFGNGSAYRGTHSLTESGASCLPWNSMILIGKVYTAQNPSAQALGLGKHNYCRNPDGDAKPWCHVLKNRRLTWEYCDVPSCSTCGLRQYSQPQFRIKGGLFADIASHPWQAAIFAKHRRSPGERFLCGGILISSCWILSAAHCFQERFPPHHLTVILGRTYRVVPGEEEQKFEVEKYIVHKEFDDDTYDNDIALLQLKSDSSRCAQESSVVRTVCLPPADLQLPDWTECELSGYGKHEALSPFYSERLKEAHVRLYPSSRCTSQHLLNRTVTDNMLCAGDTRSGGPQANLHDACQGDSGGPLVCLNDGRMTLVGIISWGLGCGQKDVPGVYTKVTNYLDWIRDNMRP
Excerpt: (§6) Inhibitory effects of the compounds of the invention on plasmin (PL) and plasmin generation by plasminogen (Plogen) activators, such as tissue plasminogen activator (tPA), and urokinase (UK) were examined by the fibrin plate assay. (See e.g., Bagdy, D., Barabás, E., Bajusz, S., and Széll, E., Thromb. Haemostas., 67:325-330 (1992); Barabás, E. Szell, E. and Bajusz, S, Blood Coagulation and Fibrinolysis, 4: 243 (1993)) The results are shown in Table 1, Column C. With a few exceptions the analogues are somewhat more inhibitory than Efegatran against the three fibrinolytic enzymes.

[5] = test system: citrated human plasma; assay: Prothrombin time (PT) plasma clotting assay; format: biochemical
Description: as §5

[6] = molecular target: clot-bound thrombin (Homo sapiens, UniProt P00734); assay: Enzyme inhibition in platelet-rich plasma clots, chromogenic substrate Tos-Gly-Pro-Arg-pNA; format: biochemical; settings: for IC50: clot-bound thrombin, platelet-rich plasma clot
Description: as §1, §2, §3, §4

[7] = test system: endotoxin-treated rabbits; format: in vivo, rabbit
[8] = test system: citrated human plasma (exogenous thrombin); assay: Thrombin time (TT) plasma clotting assay; format: biochemical; settings: thrombin 2.5 NIH U/ml
Description: as §5

[9] = molecular target: plasmin (PL) (Homo sapiens, UniProt P00747); assay: Fibrin plate assay, plasmin; format: biochemical; settings: reduction of lysed area to 50% of control, read-out: LA50 PL
plasmin (PL), sequence (P00747 581-810 limits assumed, species assumed): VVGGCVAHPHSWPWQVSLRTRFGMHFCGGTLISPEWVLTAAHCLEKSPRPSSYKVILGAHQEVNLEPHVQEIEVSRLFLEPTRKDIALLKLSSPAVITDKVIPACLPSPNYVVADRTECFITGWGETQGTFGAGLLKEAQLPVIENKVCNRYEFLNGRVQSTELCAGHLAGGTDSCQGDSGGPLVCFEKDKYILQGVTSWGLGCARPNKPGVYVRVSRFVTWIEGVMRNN
plasmin (PL), sequence (P00747 97-580 limits assumed, species assumed): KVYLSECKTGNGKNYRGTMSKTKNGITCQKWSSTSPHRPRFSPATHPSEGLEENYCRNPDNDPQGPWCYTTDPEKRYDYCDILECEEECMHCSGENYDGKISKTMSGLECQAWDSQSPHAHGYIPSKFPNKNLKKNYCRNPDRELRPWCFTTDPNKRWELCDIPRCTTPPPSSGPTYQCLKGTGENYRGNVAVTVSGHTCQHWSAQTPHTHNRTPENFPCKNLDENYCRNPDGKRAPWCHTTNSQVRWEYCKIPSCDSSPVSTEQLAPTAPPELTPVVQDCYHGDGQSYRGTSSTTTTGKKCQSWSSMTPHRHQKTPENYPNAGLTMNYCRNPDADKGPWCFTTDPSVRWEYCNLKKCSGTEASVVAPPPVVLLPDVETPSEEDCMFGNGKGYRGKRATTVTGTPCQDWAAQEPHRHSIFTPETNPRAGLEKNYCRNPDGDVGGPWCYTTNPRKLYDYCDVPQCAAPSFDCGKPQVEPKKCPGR
Excerpt: as §6

[10] = molecular target: urokinase (UK) (Homo sapiens, UniProt P00749); assay: Fibrin plate assay, urokinase; format: biochemical; settings: reduction of lysed area to 50% of control, urokinase, read-out: LA50 UK
Excerpt: as §6

[11] = 0.75 mg/kg bolus + infusion, 0 hours
[12] = 0.75 mg/kg bolus + infusion, 4 hours
[13] = 0.75 mg/kg bolus + infusion, 5 hours
[14] = 0.75 mg/kg bolus + infusion, 6 hours
[15] = 0.75 mg/kg bolus + infusion, 7 hours
[16] = 0.75 mg/kg bolus + infusion, 8 hours
[17] = 1.0 mg/kg bolus + infusion, 0 hours
[18] = 1.0 mg/kg bolus + infusion, 4 hours
[19] = 1.0 mg/kg bolus + infusion, 5 hours
[20] = 1.0 mg/kg bolus + infusion, 6 hours
[21] = 1.0 mg/kg bolus + infusion, 7 hours
[22] = 1.0 mg/kg bolus + infusion, 8 hours
[23] = 1.5 mg/kg bolus + infusion, 0 hours
[24] = 1.5 mg/kg bolus + infusion, 4 hours
[25] = 1.5 mg/kg bolus + infusion, 5 hours
[26] = 1.5 mg/kg bolus + infusion, 6 hours
[27] = 1.5 mg/kg bolus + infusion, 7 hours
[28] = 1.5 mg/kg bolus + infusion, 8 hours
[29] = endotoxin-treated rabbits, 0.25 mg/kg/h infusion
[30] = endotoxin-treated rabbits, 0.5 mg/kg/h infusion
[31] = endotoxin-treated rabbits, 50 U/kg/h
[32] = endotoxin-treated rabbits, 100 U/kg/h

Molecule	IC50 [1] [µM]	CT2 APTT (concentration required for doubling the clotting time) [2] [nM]	Survival rate % [3, 11] [%]	Survival rate % [3, 12] [%]	Survival rate % [3, 13] [%]	Survival rate % [3, 14] [%]	Survival rate % [3, 15] [%]	Survival rate % [3, 16] [%]	Survival rate % [3, 23] [%]	Survival rate % [3, 24] [%]	Survival rate % [3, 25] [%]	Survival rate % [3, 26] [%]	Survival rate % [3, 27] [%]	Survival rate % [3, 28] [%]	IC50 [4] [µM]	CT2 PT (concentration required for doubling the clotting time) [5] [nM]	IC50 [6] [µM]	CT2 TT (concentration required for doubling the clotting time) [8] [nM]	IC50 [9] [µM]	IC50 [10] [µM]	further results
CN[C@H](Cc1ccccc1)C(=O)N1CCC[C@H]1C(=O)N[C@H](C=O)CCCN=C(N)N [C, D-MePhe-Pro-Arg-H, reference compound]	1	622	100	93	73	67	33	27	100	100	100	100	92	92	132	2915	0.375	87	54	82	Survival rate % [3, 17]: 100%; Survival rate % [3, 18]: 83%; Survival rate % [3, 19]: 83%; Survival rate % [3, 20]: 66%; Survival rate % [3, 21]: 58%; Survival rate % [3, 22]: 50%; Lethality %, 2 hrs [7, 29]: 7%; Lethality no. died/treated animals, 2 hrs [7, 29]: 1/14; Lethality %, 4 hrs [7, 29]: 36%; Lethality no. died/treated animals, 4 hrs [7, 29]: 5/14; Lethality %, 2 hrs [7, 30]: 7%; Lethality no. died/treated animals, 2 hrs [7, 30]: 1/15; Lethality %, 4 hrs [7, 30]: 40%; Lethality no. died/treated animals, 4 hrs [7, 30]: 6/15
CN[C@H](CC1CCCCCC1)C(=O)N1CCC[C@H]1C(=O)N[C@H](C=O)CCCNC(=N)N [Compound 2, N-methyl-D-cycloheptylalanyl-L-prolyl-L-arginine aldehyde]	0.102	315	100	86	78	57	57	50	100	100	100	100	100	100	14	876	0.093	118	16	18	Effectiveness on survival compared with reference C (in words) [3]: more effective than reference C; Survival rate % [3, 17]: 100%; Survival rate % [3, 18]: 100%; Survival rate % [3, 19]: 100%; Survival rate % [3, 20]: 100%; Survival rate % [3, 21]: 90%; Survival rate % [3, 22]: 90%; Inhibition of clot-bound thrombin compared with Efegatran (in words) [6]: surpass Efegatran
CN[C@@H](C(=O)N1CC[C@H]1C(=O)N[C@H](C=O)CCCNC(=N)N)C1CCCCC1 [Compound 4, N-methyl-D-cyclohexylglycyl-L-azetidine-2-carbonyl-L-arginine aldehyde] (H-[dNMeChg]-[Aze]-Arg-aldehyde)	0.457	677	100	100	100	100	92	85	100	100	100	100	100	100	12	2921	0.245	101	32	16	Effectiveness on survival compared with reference C (in words) [3]: more effective than reference C; Survival rate % ([3]; 0.5 mg/kg bolus + infusion, 0 hours): 100%; Survival rate % ([3]; 0.5 mg/kg bolus + infusion, 4 hours): 93%; Survival rate % ([3]; 0.5 mg/kg bolus + infusion, 5 hours): 87%; Survival rate % ([3]; 0.5 mg/kg bolus + infusion, 6 hours): 87%; Survival rate % ([3]; 0.5 mg/kg bolus + infusion, 7 hours): 87%; Survival rate % ([3]; 0.5 mg/kg bolus + infusion, 8 hours): 80%; Inhibition of clot-bound thrombin compared with Efegatran (in words) [6]: surpass Efegatran
N=C(N)NCCC[C@@H](C=O)NC(=O)[C@@H]1CCCN1C(=O)[C@H](O)C1CCCCCC1 [Compound C1, reference compound]	0.2	333	–	–	–	–	–	–	–	–	–	–	–	–	74	1254	0.524	120	83	120	Effect on lethality of endotoxin-treated rabbits (in words) ([7]; compared with endotoxin alone): no effect on lethality; Lethality %, 2 hrs [7, 30]: 0%; Lethality no. died/treated animals, 2 hrs [7, 30]: 0/16; Lethality %, 4 hrs [7, 30]: 31%; Lethality no. died/treated animals, 4 hrs [7, 30]: 5/16
N=C(N)NCCC[C@@H](C=O)NC(=O)[C@@H]1CCCN1C(=O)C(O)CCc1ccccc1 (stereo partly drawn) [Compound C3, hPla-Pro-Arg-H]	–	–	–	–	–	–	–	–	–	–	–	–	–	–	–	–	–	–	–	–	Lethality %, 2 hrs [7, 30]: 6%; Lethality no. died/treated animals, 2 hrs [7, 30]: 1/18; Lethality %, 4 hrs [7, 30]: 56%; Lethality no. died/treated animals, 4 hrs [7, 30]: 10/18; Increase in lethality ([7]; endotoxin-treated rabbits, relative to endotoxin alone): ~1.8 fold
heparin	–	–	–	–	–	–	–	–	–	–	–	–	–	–	–	–	–	–	–	–	Lethality %, 2 hrs [7, 31]: 0%; Lethality no. died/treated animals, 2 hrs [7, 31]: 0/17; Lethality %, 4 hrs [7, 31]: 35%; Lethality no. died/treated animals, 4 hrs [7, 31]: 6/17; Lethality %, 2 hrs [7, 32]: 0%; Lethality no. died/treated animals, 2 hrs [7, 32]: 0/19; Lethality %, 4 hrs [7, 32]: 37%; Lethality no. died/treated animals, 4 hrs [7, 32]: 7/19
